From patent US9278942B2, “Non-steroidal compounds as androgen receptor modulators” (FLX Discoveries Oy, priority 2011, dated 2016)
Like-named read-outs stand apart in the source and are kept apart here.

Legend:
human AR [1] = target: T1, human AR (Homo sapiens, UniProt P10275); test: AR antagonism assay: inhibition of transcriptional activation of AR (Probasin-luc reporter, COS-1 cells); format: cell-based; conditions: compound 10.0 μM, relative luciferase response: 100% for testosterone (no antiandrogenic effect), 0% for complete antagonism; for remaining activity at 10 µM: COS-1, 18 h, read-out: AR antagonism against 100 nM testosterone ± S.D.
T1 construct: expressed in transfected cells; host or cells: COS-1
T1 sequence (P10275 1-920): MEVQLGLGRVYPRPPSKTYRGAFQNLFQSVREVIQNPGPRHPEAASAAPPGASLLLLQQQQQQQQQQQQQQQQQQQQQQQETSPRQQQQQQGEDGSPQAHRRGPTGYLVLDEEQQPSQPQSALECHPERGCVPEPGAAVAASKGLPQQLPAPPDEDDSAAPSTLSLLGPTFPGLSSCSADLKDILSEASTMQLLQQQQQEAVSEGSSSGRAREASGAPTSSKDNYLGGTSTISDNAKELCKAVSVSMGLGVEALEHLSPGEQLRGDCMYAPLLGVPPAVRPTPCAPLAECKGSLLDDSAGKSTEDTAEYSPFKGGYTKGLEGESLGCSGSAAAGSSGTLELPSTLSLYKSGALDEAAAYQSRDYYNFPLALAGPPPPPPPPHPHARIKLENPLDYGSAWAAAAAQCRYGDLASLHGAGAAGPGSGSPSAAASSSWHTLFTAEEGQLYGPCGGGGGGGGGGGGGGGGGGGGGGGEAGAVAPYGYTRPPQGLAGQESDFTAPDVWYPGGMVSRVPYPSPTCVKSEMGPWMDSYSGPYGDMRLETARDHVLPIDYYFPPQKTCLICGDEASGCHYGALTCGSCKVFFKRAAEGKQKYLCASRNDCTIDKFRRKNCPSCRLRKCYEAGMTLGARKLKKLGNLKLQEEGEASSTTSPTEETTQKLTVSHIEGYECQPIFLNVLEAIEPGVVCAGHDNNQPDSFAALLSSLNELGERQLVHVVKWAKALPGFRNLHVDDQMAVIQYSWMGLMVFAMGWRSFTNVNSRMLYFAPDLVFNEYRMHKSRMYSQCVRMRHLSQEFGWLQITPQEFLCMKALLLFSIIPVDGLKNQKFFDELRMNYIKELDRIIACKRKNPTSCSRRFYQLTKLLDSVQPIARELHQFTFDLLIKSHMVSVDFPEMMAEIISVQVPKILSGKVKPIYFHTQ
Experimental: Determination of the Antiandrogen Activity.
Testosterone was bought from Sigma Chemical Co. (St. Louis, Mo.) and hydroxyflutamide from Chemos GmbH. One day before transfection, COS-1 cells (from ATCC) were seeded into 1 ml of DMEM (Dulbecco's modified Eagle medium, Gibco) with 10% dextran-charcoal-treated fetal bovine serum and 0.25% (vol/vol) Penicillin-Streptomycin (Euroclone) at a density of 70×10^3 cells/well. After medium change to DMEM 2.5% FBS, the cells were transfected for 24 hours with 10 ng/well of human AR expression vector pSG5-hAR, 100 ng/well of reporter plasmid Probasin-luc, and 10 ng/well of control plasmid pCMV-β-gal by using the TransIT method (Micrus Bio TransIT LT1, Transfection Reagent). After the transfection, the cells received treatment of test compounds giving final concentration of 10 μM for each compound. In the antagonist test the wells were also treated with 100 nM final concentration of testosterone. After 18 hours, the cells were washed, lysed and assayed for luciferase and normalization for β-galactosidase activities and protein concentrations. The cells were washed with 100 μl of cold phosphate buffered saline (PBS) and lysed with 35 μl 1× Reporter lysis Buffer (Promega) and frozen (−70° C.) for 30 minutes. Cell lysates were placed in 1.5-ml propylene tubes and centrifuged at 13200×g for 5 minutes at room temperature. For β-galactosidase assay 10 μl of supernatant from each cell extract was transferred to a 96-well plate (96 well Elisa Microplates, PS, Microcon) and incubated for 10 minutes at 37° C. with 65 μl of reaction mixture consisting 0.76 μl 100×Mg-buffer, 12.5 μl ONPG (4 mg/ml), and 54.3 μl of sodium-phosphate buffer (pH 7). The reaction was stopped with treatment of 125 μl Na2CO3. For luciferase assay 10 μl of the supernatant was transferred to a 96-well plate (Greiner Microlon lumitrac 200) and treated with 30 μl of luciferase assay substrate solution (Promega Luciferase Assay System E1501). For the study of protein concentrations 5 μl of the supernatant was transferred to a 96-well plate (Elisa Microplates, PS, Microcon) and mixed with 200 μl of Bio-rad protein assay reagent. The luciferase activities were measured with Thermo Luminoscan Ascent scanner and the protein concentrations and β-galactosidase activities with Thermo Labsystem Multiscan Ex scanner. Also blank and control samples were measured. During the maintenance, transfection, and treatment with tested compounds the cells were incubated in humidified atmosphere with 5% carbon dioxide at 37° C.

human AR [2] = target: T1, human AR; test: Competitive AR binding assay against [3H]-R1881 in transiently transfected COS-1 cells; conditions: compound 13.4 μM, [3H]-R1881 1.34 nM, complete inhibition equals 100%; for inhibition at 13.4 µM: read-out: Inhibition of [3H]-R1881 binding at 1.34 nM ± S.D.
Experimental: Competitive AR Binding Assay.
AR binding was measured by a competitive assay against [^3H]-R1881 (PerkinElmer) in transiently transfected COS-1 cells. One day before transfection, COS-1 cells were seeded into 2 ml of DMEM (Dulbecco's modified Eagle medium, Gipco) with 10% dextran-charcoal-treated fetal bovine serum and 0.25% (vol/vol) Penicillin-Streptomysin (Euroclone) at a density of 140×10^3 cells/well. After medium change to DMEM 2.5% FBS, the cells were transfected for 24 hours with 10 ng/well of human AR expression vector pSG5 hAR by using the TransIT method (Micrus Bio TransIT LT1, Transfection Reagent). After 36 hours, the cells where treated with tested compounds using 10000 fold molarities compared to labelled R1881 (1.34 nM). After 2 hours of incubation at 37° C., the medium was removed. The cells were removed from the wells to 150 μl of 1× phosphate buffered saline (PBS), transferred to Eppendorf tubes and centrifuged at 4° C. using 4000×g for 5 min, and then washed twice with 150 μl of PBS. The cell pellets were dissolved to 50 μl of 0.5M NaOH and incubated for 15 min at 56° C., after which the samples (three replicates for each sample compound) were transferred to liquid twinkle tubes with 3 ml of OptiPhase HiSafe 3 twinkle solution (PerkinElmer) and radioactivity of AR-bound [^3H]-R1881 determined. The results were measured with LKB WALLAC 1214 racbeta equipment. The ability of test compounds to bind AR is reported as reduction in bound radioactivity obtained with 1.34 nM [^3H]-R1881.
The results (% inhibition) were calculated as: % inhibition=100−[100×(averagecompound/average[3H]-R1881)].

Row | AR antagonism against 100 nM testosterone ± S.D. (human AR [1]) [%] | remaining activity at 10 µM (human AR [1]) [%] | inhibition at 13.4 µM (human AR [2]; Table 2) [%] | Compound | also measured
1 | 100 |  |  | c1ccc2c(C3=NOC4CCCCC34)cccc2c1 (single isomer, unassigned) [Example 33b, 3-Naphthalen-1-yl-3a,4,5,6,7,7a-hexahydro-benzo[d]-isoxazole] | Inhibition of [3H]-R1881 binding at 1.34 nM ± S.D. (human AR [2]; Table 1): 56.9 ± 4.4%
2 | 2.9 ± 0.5 |  |  | O=[N+]([O-])c1ccc(C2=NOC3CCCCC23)c(C(F)(F)F)c1 (single isomer, unassigned) [Example 38a, 3-(4-Nitro-2-trifluoromethyl-phenyl)-3a,4,5,6,7,7a-hexahydro-benzo-[d]-isoxazole] | inhibition at 13.4 µM (human AR [2]; Table 1): 94.5 ± 0.5%
3 | 17.8 ± 3.9 |  |  | N#Cc1cccc(C2=NOC3CCCCC23)c1C(F)(F)F (single isomer, unassigned) [Example 94a, 3-(3a,4,5,6,7,7a-Hexahydro-benzo[d]isoxazol-3-yl)-2-trifluoromethyl-benzonitrile] | inhibition at 13.4 µM (human AR [2]; Table 3): 97.4 ± 0.4%
4 |  | 17.4 ± 1.5 | 90.5 ± 3.1 | O=[N+]([O-])c1ccc(C2=NOC3CCCCCC23)c(C(F)(F)F)c1 (stereo not drawn) [Example 42a, 3-(4-Nitro-2-trifluoromethyl-phenyl)-4,5,6,7,8,8a-hexahydro-3aH-cyclohepta[d]isoxazole] | inhibition at 13.4 µM (human AR [2]; Table 3): 91.4 ± 3.8%
5 |  | 27.5 ± 4.1 | 78.8 ± 0.6 | N#Cc1ccc(C2=NOC3CCCCC23)c(C(F)(F)F)c1 (stereo not drawn) [Example 89a, 4-(3a,4,5,6,7,7a-Hexahydro-benzo[d]isoxazol-3-yl)-3-trifluoromethyl benzonitrile] | 
6 | 75.9 ± 3.7 |  |  | O=[N+]([O-])c1ccc(C2=NOC3CCCCC23)c(C(F)(F)F)c1 (single isomer, unassigned) [Example 38b, 3-(4-Nitro-2-trifluoromethyl-phenyl)-3a,4,5,6,7,7a-hexahydro-benzo-[d]-isoxazole] | Inhibition of [3H]-R1881 binding at 1.34 nM ± S.D. (human AR [2]; Table 1): 90.7 ± 0.5%
7 |  | 57.7 ± 9.9 |  | Fc1ccc(C2=NOC3CCCCCCC23)cc1C(F)(F)F (stereo not drawn) [Example 43a, 3-(4-Fluoro-3-trifluoromethyl-phenyl)-3a,4,5,6,7,8,9,9a-octahydro-cycloocta[d]isoxazole] | Inhibition of [3H]-R1881 binding at 1.34 nM ± S.D. (human AR [2]; Table 2): 66.3 ± 9.8%
8 | 20.3 ± 1.7 |  |  | N#Cc1ccc(C2=NOC3CCCCC23)c(C(F)(F)F)c1 (stereo not drawn) [Example 89b, 4-(3a,4,5,6,7,7a-Hexahydro-benzo[d]isoxazol-3-yl)-3-trifluoromethyl benzonitrile] | Inhibition of [3H]-R1881 binding at 1.34 nM ± S.D. (human AR [2]; Table 2): 83.6 ± 0.9%
9 | 35.6 ± 7.8 |  |  | Fc1ccc(C2=NOC3CCCCCCC23)c(C(F)(F)F)c1 (stereo not drawn) [Example 44b, 3-(4-Fluoro-2-trifluoromethyl-phenyl)-3a,4,5,6,7,8,9,9a-octahydro-cycloocta[d]isoxazole] | Inhibition of [3H]-R1881 binding at 1.34 nM ± S.D. (human AR [2]; Table 3): 85.2 ± 3.8%
10 | 65.5 ± 9.0 |  |  | N#Cc1ccc(C2=NOC3CCCCCCC23)c(C(F)(F)F)c1 (single isomer, unassigned) [Example 93b, 4-(3a,4,5,6,7,8,9,9a-Octahydro-cycloocta[d]isoxazol-3-yl)-3-trifluoromethyl-benzonitrile] | Inhibition of [3H]-R1881 binding at 1.34 nM ± S.D. (human AR [2]; Table 3): 76.0 ± 4.8%
11 |  | 43.8 ± 2.4 | 55.7 ± 5.8 | Fc1ccc(C2=NOC3CCCCCC23)cc1C(F)(F)F (stereo not drawn) [Example 39ab, 3-(4-Fluoro-3-trifluoromethyl-phenyl)-4,5,6,7,8,8a-hexahydro-3aH-cyclohepta[d]isoxazole] | 
12 | 5.4 ± 1.7 |  |  | N#Cc1cccc(C2=NOC3CCCCC23)c1C(F)(F)F (single isomer, unassigned) [Example 94b, 3-(3a,4,5,6,7,7a-Hexahydro-benzo[d]isoxazol-3-yl)-2-trifluoromethyl-benzonitrile] | Inhibition of [3H]-R1881 binding at 1.34 nM ± S.D. (human AR [2]; Table 3): 97.6 ± 0.2%
13 | 9.4 ± 0.3 |  |  | N#Cc1ccc(C2=NOC3CCCCCCC23)c(C(F)(F)F)c1 (single isomer, unassigned) [Example 93a, 4-(3a,4,5,6,7,8,9,9a-Octahydro-cycloocta[d]isoxazol-3-yl)-3-trifluoromethyl-benzonitrile] | inhibition at 13.4 µM (human AR [2]; Table 3): 87.2 ± 2.9%
14 |  | 14.4 ± 1.9 |  | N#Cc1cccc(C2=NOC3CCCCCC23)c1C(F)(F)F (stereo not drawn) [Example 95a, 3-(4,5,6,7,8,8a-Hexahydro-3aH-cyclohepta[d]isoxazol-3-yl)-2-trifluoromethyl-benzonitrile] | inhibition at 13.4 µM (human AR [2]; Table 3): 96.2 ± 0.8%

Row | Compound | AR antagonism against 100 nM testosterone ± S.D. (human AR [1]) [%] | remaining activity at 10 µM (human AR [1]) [%] | inhibition at 13.4 µM (human AR [2]; Table 2) [%] | also measured
15 | N#Cc1ccc(C2=NOC3CCCCC23)cc1C(F)(F)F (stereo not drawn) [Example 88ab, 4-(3a,4,5,6,7,7a-Hexahydro-benzo[d]isoxazol-3-yl)-2-trifluoromethyl benzonitrile] | 9.2 ± 1.7 |  | 99.2 ± 0.5 | 
16 | N#Cc1ccc(C2=NOC3CCCCCC23)c(C(F)(F)F)c1 (stereo not drawn) [Example 91a, 4-(4,5,6,7,8,8a-Hexahydro-3aH-cyclohepta[d]isoxazol-3-yl)-3-trifluoromethyl benzonitrile] |  | 29.8 ± 3.6 | 85.4 ± 1.5 | 
